Results on 18 molecules are retold here after ChEMBL document CHEMBL1144438, “Dipeptidyl peptidase IV inhibitors derived from beta-aminoacylpiperidines bearing a fused thiazole, oxazole, isoxazole, or pyrazole” (Bioorg Med Chem Lett, 2005).

The target in one series is Dipeptidyl peptidase 9 (Homo sapiens, UniProt Q86TI2). The series can be described thus: Inhibitory concentration against human dipeptidylpeptidase 9.
The target of another series is Dipeptidyl peptidase 8 (Homo sapiens, UniProt Q6V1X1). The series can be described thus: Inhibitory concentration against human dipeptidylpeptidase 8.
Dipeptidyl peptidase 8, sequence (Q6V1X1 whole entry): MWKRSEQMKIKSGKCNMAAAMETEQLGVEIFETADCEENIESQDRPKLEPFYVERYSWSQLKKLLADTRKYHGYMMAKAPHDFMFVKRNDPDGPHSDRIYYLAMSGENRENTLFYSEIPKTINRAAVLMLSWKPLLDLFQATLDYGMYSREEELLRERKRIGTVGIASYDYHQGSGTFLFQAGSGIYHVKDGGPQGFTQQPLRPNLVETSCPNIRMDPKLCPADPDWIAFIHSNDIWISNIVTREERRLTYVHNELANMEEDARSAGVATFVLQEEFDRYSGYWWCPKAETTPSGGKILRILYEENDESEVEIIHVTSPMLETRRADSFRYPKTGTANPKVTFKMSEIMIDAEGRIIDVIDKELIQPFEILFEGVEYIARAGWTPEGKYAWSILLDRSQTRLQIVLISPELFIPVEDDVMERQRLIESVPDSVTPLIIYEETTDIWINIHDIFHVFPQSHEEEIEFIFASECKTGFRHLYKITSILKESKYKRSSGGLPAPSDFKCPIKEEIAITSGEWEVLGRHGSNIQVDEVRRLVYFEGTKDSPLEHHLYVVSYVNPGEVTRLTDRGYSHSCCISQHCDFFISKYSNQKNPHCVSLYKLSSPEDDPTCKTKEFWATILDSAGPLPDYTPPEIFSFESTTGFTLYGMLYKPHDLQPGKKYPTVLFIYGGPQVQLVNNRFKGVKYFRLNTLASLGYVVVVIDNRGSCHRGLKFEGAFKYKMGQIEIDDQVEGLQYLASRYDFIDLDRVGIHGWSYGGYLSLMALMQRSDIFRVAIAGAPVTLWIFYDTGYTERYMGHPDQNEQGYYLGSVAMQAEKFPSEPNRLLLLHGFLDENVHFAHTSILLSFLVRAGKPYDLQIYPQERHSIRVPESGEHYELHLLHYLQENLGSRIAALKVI
Series [1] can be described thus: Oral bioavailability of compound in rats dosed at 2 mg/kg p.o. It counts as ADME, organism-based. The conditions noted are these: rat, in vivo.
The nature of series [2]: Half-life of compound in rats dosed at 1 mg/kg i.v. Type of series: ADME, organism-based. Set-up: dose 1 mg/kg, route intravenous. The conditions noted are these: rat, in vivo, iv.
Series [3] in a line: Plasma clearance of compound in rats dosed at 1 mg/kg i.v. The conditions noted are these: rat, iv. Type of series: ADME, organism-based. Also noted: dose 1 mg/kg, route intravenous.
The target of another series is Dipeptidyl peptidase 2 (Homo sapiens, UniProt Q9UHL4). The series can be described thus: Inhibitory concentration against human dipeptidylpeptidase VII (QPP).

The structures appear in SMILES notation.

Dipeptidyl peptidase 9, sequence (Q86TI2 whole entry): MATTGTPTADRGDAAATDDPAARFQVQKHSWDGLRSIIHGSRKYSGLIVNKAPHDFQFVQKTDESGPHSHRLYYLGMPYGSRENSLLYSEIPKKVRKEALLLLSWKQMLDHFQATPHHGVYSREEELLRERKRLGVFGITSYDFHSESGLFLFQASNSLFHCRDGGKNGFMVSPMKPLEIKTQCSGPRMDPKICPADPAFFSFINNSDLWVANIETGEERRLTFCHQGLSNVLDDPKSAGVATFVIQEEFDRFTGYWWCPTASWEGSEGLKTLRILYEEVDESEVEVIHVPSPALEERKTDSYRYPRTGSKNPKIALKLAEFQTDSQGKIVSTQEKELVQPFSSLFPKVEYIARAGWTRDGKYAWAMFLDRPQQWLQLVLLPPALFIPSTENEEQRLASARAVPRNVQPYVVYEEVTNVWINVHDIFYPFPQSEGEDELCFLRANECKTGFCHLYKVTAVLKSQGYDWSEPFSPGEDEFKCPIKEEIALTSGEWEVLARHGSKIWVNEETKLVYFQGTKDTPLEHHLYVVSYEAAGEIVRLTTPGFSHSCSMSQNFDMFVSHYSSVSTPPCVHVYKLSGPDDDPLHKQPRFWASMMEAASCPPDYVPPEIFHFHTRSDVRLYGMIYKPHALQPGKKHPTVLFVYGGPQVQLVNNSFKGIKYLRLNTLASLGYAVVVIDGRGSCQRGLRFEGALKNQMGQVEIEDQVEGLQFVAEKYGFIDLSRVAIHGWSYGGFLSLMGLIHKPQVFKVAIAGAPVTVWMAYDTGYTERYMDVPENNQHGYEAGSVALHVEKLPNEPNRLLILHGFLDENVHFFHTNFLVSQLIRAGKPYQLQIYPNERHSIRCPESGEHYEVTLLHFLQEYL

Usually IC50 stands for the concentration needed to halve the response being measured. Low values mean inhibition by little substance, high ones a need for much substance. For the molecule `Cn1nc2c(c1C(F)(F)F)CN(C(=O)C[C@H](N)Cc1cc(F)ccc1F)CC2`, the IC50 against Dipeptidyl peptidase 9 and against Dipeptidyl peptidase 8 was more than 100 µM throughout.
For `Cn1nc(-c2ccc(F)cc2)c2c1CCN(C(=O)C[C@H](N)Cc1cc(F)ccc1F)C2`, the IC50 on Dipeptidyl peptidase 9 is more than 100 µM.
Turning to `N[C@@H](CC(=O)N1CCc2nn(CC(F)(F)F)c(C(F)(F)F)c2C1)Cc1cc(F)ccc1F`, the IC50 against Dipeptidyl peptidase 9 and on Dipeptidyl peptidase 8 was more than 100 µM in each case.
As a reminder, the bioavailability is dose-corrected exposure relative to a reference, in per cent. The low end stands for poor availability, the high end for good availability. As a reminder, the half-life is the time needed for the level to fall by half in the phase considered. What is called clearance is a measure of how efficiently the substance is removed, as volume per time. A lower clearance goes with inefficient removal. As to `N[C@@H](CC(=O)N1CCc2sc(-c3ccc(F)cc3)nc2C1)Cc1cc(F)ccc1F`, in series [1], the bioavailability is 55%. In series [2], this molecule showed a half-life of 3.3 h. Further, the clearance in series [3] was 91 mL/min/kg.
Take `Cn1nc(C(F)(F)F)c2c1CCN(C(=O)C[C@H](N)Cc1cc(F)ccc1F)C2`: at Dipeptidyl peptidase 9, the IC50 was more than 100 µM.
For `N[C@@H](CC(=O)N1CCc2c(noc2C(F)(F)F)C1)Cc1cc(F)ccc1F`, at Dipeptidyl peptidase 2, the IC50 is more than 100 µM.
For the molecule `N[C@@H](CC(=O)N1CCc2c(c(C(F)(F)F)nn2CC(F)(F)F)C1)Cc1cc(F)ccc1F`, the IC50 at Dipeptidyl peptidase 9 is more than 100 µM.
As for `CS(=O)(=O)c1ccc(-c2nc3c(s2)CCN(C(=O)C[C@H](N)Cc2cc(F)ccc2F)C3)cc1`, the bioavailability in series [1] is 20%. Also, the half-life in series [2] was 1.5 h. In series [3], the clearance stood at 60 mL/min/kg.
In the case of `N[C@@H](CC(=O)N1CCc2oc(C3CC3)nc2C1)Cc1cc(F)ccc1F`, the IC50 on Dipeptidyl peptidase 9 and on Dipeptidyl peptidase 2 was more than 100 µM throughout.
With `Cn1nc2c(c1-c1ccc(F)cc1)CN(C(=O)C[C@H](N)Cc1cc(F)ccc1F)CC2`, on Dipeptidyl peptidase 9, the IC50 is more than 100 µM.
As to `N[C@@H](CC(=O)N1CCc2sc(C(F)(F)F)nc2C1)Cc1cc(F)ccc1F`, at Dipeptidyl peptidase 9, the IC50 was more than 100 µM. Besides, the bioavailability in series [1] came to 16%. The half-life in series [2] was 2 h. Moreover, the clearance in series [3] was determined as 250 mL/min/kg.
For the molecule `N[C@@H](CC(=O)N1CCc2noc(C(F)(F)F)c2C1)Cc1cc(F)ccc1F`, the IC50 on Dipeptidyl peptidase 9 and against Dipeptidyl peptidase 8 was more than 100 µM in each case.
For `N[C@@H](CC(=O)N1CCCc2n[nH]c(C(F)(F)F)c21)Cc1cc(F)ccc1F`, the IC50 against Dipeptidyl peptidase 9 and against Dipeptidyl peptidase 8 was more than 100 µM each time.
For the molecule `Cn1nc2c(c1C(F)(F)C(F)(F)F)CN(C(=O)C[C@H](N)Cc1cc(F)ccc1F)CC2`, the IC50 against Dipeptidyl peptidase 9 and against Dipeptidyl peptidase 8 was more than 100 µM each time.
The molecule `Cn1nc(C(F)(F)C(F)(F)F)c2c1CCN(C(=O)C[C@H](N)Cc1cc(F)ccc1F)C2` returned an IC50 against Dipeptidyl peptidase 9 of more than 100 µM.
Same read-out and setting: to `Cn1nc2c(c1C(F)(F)F)CCN(C(=O)C[C@H](N)Cc1cc(F)ccc1F)C2` belongs more than 100 µM; to `N[C@@H](CC(=O)N1CCc2n[nH]c(C(F)(F)C(F)(F)F)c2C1)Cc1cc(F)ccc1F` (stereo in doubt; form 1), more than 100 µM.
The same measure, in the same setting: the value for `N[C@@H](CC(=O)N1CCc2n[nH]c(C(F)(F)C(F)(F)F)c2C1)Cc1cc(F)ccc1F` (stereo in doubt; form 2) was more than 100 µM.
